10 compounds from PubChem BioAssay (NCI) can be followed below.

Several values for one entry are separate records, joined by “and”; a condition that tells them apart may be missing. Equal entries are not always repeated.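 Each compound was tested at five concentrations against cells in 96-well plates for 48 hours. Here, GI50 denotes the concentration required for 50% inhibition of growth. TGI marks complete inhibition of growth.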 Where only a bound is given, the exact number is not on record here.

Common to all, as to experiment: NCI-60 cell line screen, 48 h
Assay [1] has as its system BT-549 breast.
Assay [2] concerns COLO 205 colon.
The test system of assay [3] is HCT-116 colon.
Assay [4] concerns HOP-92 NSCLC.
Assay [5] deals with NCI-H522 lung.
Assay [6] relates to OVCAR-8 ovarian.
The test system of assay [7] is PC-3 prostate.
In assay [8] the test system is SR leukemia.

As to `COc1ccc(/C(=C/c2ccc3ccccc3c2)c2nn[nH]n2)cc1OC`, the GI50 in assay [1] was 10.9 µM; in assay [2], 2.27 µM; in assay [3] it was 2.42 µM; in assay [4], 4.59 µM; in assay [5], 1.14 µM; in assay [6], 7.1 µM. For the same compound, the GI50 in assay [7] was 2.36 µM; in assay [8], 2.23 µM. Further, the TGI in assay [1] was greater than 100 µM; in assay [2], 6.56 µM; in assay [3], greater than 100 µM; in assay [4], 79.8 µM; in assay [5] it was 35.8 µM; in assay [6], greater than 100 µM. The TGI in assay [7] and in assay [8] was greater than 100 µM in each case.
`CCC(CC)c1cc(N[C@H]2CC[C@H](N)C2)n2nccc2n1`: the GI50 is 1.36 µM in assay [1]; 0.732 µM in assay [2]; 0.402 µM in assay [3]; 3.56 µM in assay [4]; 0.281 µM in assay [5]; 2.77 µM in assay [6]. The results for the GI50 in assay [7] and in assay [8] were 2.43 µM and 0.332 µM, respectively. Further, the TGI was 3.22 µM in assay [1]; 2.41 µM in assay [2]; greater than 100 µM in assay [3]; greater than 100 µM in assay [4]; 1.55 µM in assay [5]; greater than 100 µM in assay [6]. Also, the TGI in assay [7] and in assay [8] was greater than 100 µM in each case.
Turning to `COc1cc(N2CCN(C(C)C)CC2)ccc1Nc1nc(Nc2ccc(F)cc2C(=O)NCC(O)CO)c2cc[nH]c2n1` (stereo not drawn), the GI50 in assay [1] was 8.23 µM; in assay [2] it was 0.526 µM; in assay [3], 1.69 µM; in assay [4], 0.182 µM; in assay [5], 4.79 µM; in assay [6] it was 16.3 µM. The GI50 in assay [7] is greater than 25 µM; in assay [8] it was 1.13 µM. Besides, the TGI was greater than 25 µM in assay [1]; greater than 9.9 µM in assay [2]; greater than 25 µM in assay [3]; 2.09 µM in assay [4]; greater than 25 µM in assay [5]; greater than 25 µM in assay [6]. The results for the TGI in assay [7] and in assay [8] were greater than 25 µM and greater than 14 µM, respectively.
On to `C=C[C@H]1CN2CCc3c([nH]c4c([C@@H]5CCCN5C)c(O)ccc34)[C@@H]2C[C@@H]1C[C@H]1c2[nH]c3ccccc3c2CCN1C`, for which the TGI is 3.27 µM and 2.96 µM in assay [1]; 3.09 µM and 2.64 µM and 3.04 µM in assay [2]; 2.68 µM and 1.48 µM in assay [3]; 2.76 µM and 2.91 µM in assay [4]; 3.66 µM in assay [5]; 3.3 µM and 2.96 µM in assay [6]. Also, the TGI in assay [7] was 3.05 µM and 2.88 µM; in assay [8], 520 nM [middle of 4 runs]. The GI50 is 1.13 µM in assay [3]; 0.161 µM and 0.197 µM in assay [8].
For the compound `NC(=O)c1cc(I)ccc1NC(=O)/C=C/c1ccccc1Cl`, the GI50 in assay [1] is 0.816 µM; in assay [2] it was 0.651 µM; in assay [3], 0.465 µM; in assay [4] it was 7.22 µM; in assay [5], 0.334 µM; in assay [6] it was 3 µM. For the same compound, the GI50 is 0.572 µM in assay [7] and 0.26 µM in assay [8]. The TGI in assay [1] was 94.7 µM; in assay [2], 5.7 µM; in assay [3], 11.9 µM; in assay [4], 36.4 µM; in assay [5], 1.64 µM; in assay [6], greater than 38.8 µM. Further, the TGI in assay [7] was greater than 35.4 µM; in assay [8] it was 0.952 µM.
Take `C=C1C(=O)O[C@@H]2C[C@@H]1CC[C@]1(C)O[C@H]1CC/C(C)=C/CC[C@@]2(C)O`: the GI50 in assay [1] was 16.9 µM; in assay [2] it was 18.1 µM; in assay [3] it was 13.1 µM; in assay [4], 29.1 µM; in assay [5], 27.2 µM; in assay [6], 22.3 µM. Further, the GI50 in assay [7] was 96.3 µM; in assay [8] it was 4.07 µM. Further, the TGI in assay [1] was 39.3 µM; in assay [2], 34.8 µM; in assay [3] it was 25.8 µM; in assay [4] it was 82.7 µM; in assay [5], greater than 100 µM; in assay [6] it was 57.8 µM. Also, the TGI in assay [7] was greater than 100 µM; in assay [8], 15.7 µM.
`CCCCCCCCCCCCNC(=O)N[C@H](C(=O)N[C@H]1/C=C/CCNC(=O)/C=C/[C@H](C)NC1=O)C(C)C`: the GI50 is 0.0228 µM in assay [1]; 0.0309 µM in assay [2]; 0.0365 µM in assay [3]; 0.123 µM in assay [4]; 0.0244 µM in assay [5]; 0.463 µM in assay [6]. The GI50 in assay [7] is 0.0154 µM; in assay [8], 0.0294 µM. Besides, the TGI in assay [1] was found to be 0.0701 µM; in assay [2] it was 0.109 µM; in assay [3] it was 0.163 µM; in assay [4], 0.353 µM; in assay [5], 0.0647 µM; in assay [6] it was 4.19 µM. Besides, the TGI turned out to be 0.0665 µM in assay [7] and 0.958 µM in assay [8].
As to `CC1NC(C(=O)O)Cc2cc(O)c(O)cc21` (stereo not drawn), the TGI in assay [1], in assay [2], in assay [3], in assay [4], in assay [5] and in assay [6] was greater than 100 µM throughout. The TGI in assay [7] and in assay [8] was greater than 100 µM throughout.
`NS(=O)(=O)c1ccc(N=Nc2c(O)[nH]c3ccc(C(=O)NCCc4cnc[nH]4)cc23)cc1`: the GI50 in assay [1], in assay [2], in assay [3], in assay [4], in assay [5] and in assay [6] was greater than 25 µM in each case. The GI50 in assay [7] and in assay [8] was greater than 25 µM throughout. For the same compound, the TGI in assay [1], in assay [2], in assay [3], in assay [4], in assay [5] and in assay [6] was greater than 25 µM in each case. Further, the TGI in assay [7] and in assay [8] was greater than 25 µM each time.
With `NC(CP(=O)(O)O)C(=O)O` (stereo not drawn), the TGI in assay [1], in assay [2], in assay [3], in assay [4], in assay [5] and in assay [6] was greater than 100 µM in each case. The TGI in assay [7] and in assay [8] was greater than 100 µM in each case.
